In patent US20050282840A1, “Methods of modulating neurotrophin-mediated activity” (PainCeptor Pharma Corporation, priority 2004, published 2005):
Read-outs that look alike come from different tables or passages of the source.

Columns and labels:
[1] = biological target: T1, p75^NTR receptors (PC12 cells) (Rattus norvegicus, UniProt P07174); assay: Basic screening assay: binding of 125I-BDNF to PC12 cells; conditions: read-out: BDNF Activity % Maximal Binding
T1 construct: endogenous in cells; host or cells: PC12 cells
T1 sequence (P07174 30-425): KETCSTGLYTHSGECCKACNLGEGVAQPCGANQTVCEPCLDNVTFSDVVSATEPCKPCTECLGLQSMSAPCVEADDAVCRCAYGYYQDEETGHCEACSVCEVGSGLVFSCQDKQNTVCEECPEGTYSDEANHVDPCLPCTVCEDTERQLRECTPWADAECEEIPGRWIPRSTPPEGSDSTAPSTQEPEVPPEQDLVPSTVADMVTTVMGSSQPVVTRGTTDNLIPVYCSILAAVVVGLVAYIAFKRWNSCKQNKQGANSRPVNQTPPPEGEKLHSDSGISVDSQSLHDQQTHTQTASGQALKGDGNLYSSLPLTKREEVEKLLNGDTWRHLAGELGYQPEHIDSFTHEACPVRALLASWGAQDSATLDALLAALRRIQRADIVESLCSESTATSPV
T1 sequence (P23560 129-247 partner): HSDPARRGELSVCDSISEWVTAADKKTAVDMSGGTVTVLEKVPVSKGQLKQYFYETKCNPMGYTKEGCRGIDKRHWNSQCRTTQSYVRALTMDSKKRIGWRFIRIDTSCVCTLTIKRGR
Method in brief: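 4×10^6 PC12 cells incubated 2 h at 4° C, rotating, with 0.5 nM ^125I-BDNF (final) and compound at 50 μM, in duplicate or more. Bound ligand separated through 10% glycerol by centrifugation and counted by gamma counter; specific binding is Bmax minus NSB; inhibitors followed up for EC50.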

[2] = tested on: p75^NTR receptors (PC12 cells); assay: Basic screening assay: binding of 125I-NGF to PC12 cells; conditions: test compound 50 μM, 0.5 nM 125I-NGF, PC12 cells, 2 h at 4° C., specific binding as percent of control
Method in brief: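 PC12 cells (4×10^6) incubated 2 h at 4° C with 0.5 nM 125I-NGF and test compound at 50 μM, rotating. Bound tracer pelleted through 10% glycerol and gamma-counted; specific binding expressed as percent of control after NSB subtraction.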

[3] = Table 1, test compound 50 μM, 0.5 nM 125I-BDNF, PC12 cells, 2 h at 4° C., specific binding as percent of control
[4] = Table 4, test compound 50 μM, 0.5 nM 125I-BDNF, PC12 cells, 2 h at 4° C., specific binding as percent of control

| Compound | NGF Activity % Maximal Binding ([2]; Table 4) | activity at 50 µM [1, 3] [%] | NGF Activity % Maximal Binding ([2]; Table 1) | also measured |
| --- | --- | --- | --- | --- |
| NS(=O)(=O)c1ccc(-c2ccc(C=C3C(=O)NC(=S)NC3=O)o2)cc1 [Compound 105, 4-[5-(4,6-Dioxo-2-thioxo-tetrahydro-pyrimidin-5-ylidenemethyl)furan-2-yl]benzenesulfonamide] | * (50 < *) | – | – | activity at 50 µM [1]: > 50% |
| CCOC(=O)CN1C(=O)S/C(=C/c2ccc(-c3cc(C(=O)O)ccc3C)o2)C1=O [Compound 21, 3-[5-(3-Ethoxycarbonylmethyl-2,4-dioxo-thiazolidin-5-ylidenemethyl)furan-2-yl]-4-methylbenzoic acid] | – | 0 to 10 | * (50 < *) | – |
| O=C1NC(=S)N/C1=C/c1ccc(-c2ccc([N+](=O)[O-])cc2Cl)o1 [Compound 47, 5-[5-(2-Chloro-4-nitrophenyl)furan-2-ylmethylene]-2-thioxo-imidazolidin-4-one] | – | 30 to 40 | * (50 < *) | – |
| Cc1cc(-c2ccc(C=C3C(=O)NC(=S)NC3=O)o2)cc([N+](=O)[O-])c1C [Compound 25, 5-[5-(3,4-Dimethyl-5-nitrophenyl)furan-2-ylmethylene]-2-thioxo-dihydro-pyrimidine-4,6-dione] | – | – | * (50 < *) | activity at 50 µM [1]: 0 to 10% |
| COCCN1C(=O)C(=Cc2ccc(-c3ccc([N+](=O)[O-])cc3)o2)SC1=S [Compound 120, 3-(2-Methoxy-ethyl)-5-[5-(4-nitrophenyl)furan-2-ylmethylene]-2-thioxo-thiazolidin-4-one] | * (50 < *) | – | – | activity at 50 µM [1, 4]: > 50% |
| O=C(O)c1ccc(Cl)c(-c2ccc(/C=C3/NC(=O)N(Cc4ccc(F)cc4)C3=O)o2)c1 [Compound 13, 4-Chloro-3-{5-[1-(4-fluorobenzyl)-2,5-dioxo-imidazolidin-4-ylidenemethyl]furan-2-yl}benzoic acid] | – | 0 to 10 | * (50 < *) | – |
| CCOC(=O)CN1C(=O)S/C(=C\c2ccc(-c3ccc([N+](=O)[O-])cc3)o2)C1=O [Compound 117, {5-[5-(4-Nitrophenyl)furan-2-ylmethylene]-2,4-dioxo-thiazolidin-3-yl}-acetic acid ethyl ester] | * (50 < *) | – | – | activity at 50 µM [1, 4]: > 50% |
| Cc1cccc(N2NC(=O)C(=Cc3ccc(-c4ccc(S(N)(=O)=O)cc4)o3)C2=O)c1 [Compound 9, 4-[5-(3,5-Dioxo-1-m-tolyl-pyrazolidin-4-ylidenemethyl)furan-2-yl]benzenesulfonamide] | – | 0 to 10 | * (50 < *) | – |
| O=C(O)CN1C(=O)C(=Cc2ccc(-c3ccc([N+](=O)[O-])cc3)o2)SC1=S [Compound 38, {5-[5-(4-Nitrophenyl)furan-2-ylmethylene]-4-oxo-2-thioxo-thiazolidin-3-yl}-acetic acid] | – | 20 to 30 | * (50 < *) | – |
| Cc1c(-c2ccc(C=C3C(=O)NC(=S)NC3=O)o2)ccc([N+](=O)[O-])c1C [Compound 71, 5-[5-(2,3-Dimethyl-4-nitrophenyl)furan-2-ylmethylene]-2-thioxo-dihydro-pyrimidine-4,6-dione] | – | – | – | activity at 50 µM [1]: 0 to 10%; NGF Activity % Maximal Binding ([2]; Table 2): X (40 < X < 50) |
| O=C(O)c1ccc(-c2ccc(/C=C3/NC(=O)N(Cc4ccccc4F)C3=O)o2)cc1 [Compound 136, 4-{5-[1-(2-Fluorobenzyl)-2,5-dioxo-imidazolidin-4-ylidenemethyl]furan-2-yl}benzoic acid] | * (50 < *) | – | – | activity at 50 µM [1, 4]: > 50% |
| COC(=O)CN1C(=O)S/C(=C/c2ccc(-c3ccc(C(=O)O)cc3)o2)C1=O [Compound 79, 4-[5-(3-Methoxycarbonylmethyl-2,4-dioxo-thiazolidin-5-ylidenemethyl)furan-2-yl]benzoic acid] | – | – | – | activity at 50 µM ([1]; Table 2, test compound 50 μM, 0.5 nM 125I-BDNF, PC12 cells, 2 h at 4° C., specific binding as percent of control): 10 to 20%; NGF Activity % Maximal Binding ([2]; Table 2): X (40 < X < 50) |
| O=C1NC(=S)S/C1=C/c1ccc(-c2ccc([N+](=O)[O-])cc2Cl)o1 [Compound 5, 5-[5-(2-Chloro-4-nitrophenyl)furan-2-ylmethylene]-2-thioxo-thiazolidin-4-one] | – | 0 to 10 | * (50 < *) | – |
